Read-outs that look alike come from different tables or passages of the source.
Assays:
HIV-1 IN mutant R231G = assay: single-round infectivity assay, R231G IN mutant; format: cell-based; conditions: for EC50: Human immunodeficiency virus 1, read-out: EC50 values R231G; for FC R231G: fold change in EC50, IN mutant versus WT HIV-1
Summary of the method: (§1)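 Antiviral EC50 determined in single-round infection using HIV-1 vector pNLNgoMIVR-ΔENV.LUC (luciferase reporter) carrying the IN mutation, made by site-directed mutagenesis; WT vector run alongside. Values from n = 4 independent experiments, each in triplicate, reported with standard deviations.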

HIV-1 IN mutant G118R [1] = conditions: single round infection; previously shown; cited from earlier work
HIV-1 IN mutant P142A = assay: single-round infectivity assay, P142A IN mutant; format: cell-based; conditions: for EC50: Human immunodeficiency virus 1, read-out: EC50 values P142A; for FC P142A: fold change in EC50, IN mutant versus WT HIV-1
Summary of the method: (§2)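 Luciferase read-out from single-round infection with env-deleted HIV-1 vector (pNLNgoMIVR-ΔENV.LUC) bearing the IN mutant. EC50 from n = 4 independent experiments, triplicate each.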

HIV-1 IN mutant Y143R [2] = conditions: single round infection; previously reported; cited from earlier work
HIV-1 IN mutant N117A = assay: single-round infectivity assay, N117A IN mutant; format: cell-based; conditions: for EC50: Human immunodeficiency virus 1, read-out: EC50 values N117A; for FC N117A: fold change in EC50, IN mutant versus WT HIV-1
Summary of the method: (§3)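 EC50 measured in single-round infection with HIV-1 pNLNgoMIVR-ΔENV.LUC-based vectors carrying the IN mutation, luciferase reporter. IN mutants generated by site-directed mutagenesis; n = 4 independent experiments, each in triplicate.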

HIV-1 IN mutant S119R = assay: single-round infectivity assay, S119R IN mutant; format: cell-based; conditions: for EC50: Human immunodeficiency virus 1, read-out: EC50 values S119R; for FC S119R: fold change in EC50, IN mutant versus WT HIV-1
Summary of the method: as §3

HIV-1 IN mutant N155H [3] = assay: single-round infectivity assay, N155H IN mutant; format: cell-based
Summary of the method: (§4)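 Single-round infection with luciferase-reporter HIV-1 vector (pNLNgoMIVR-ΔENV.LUC background) carrying WT or mutant integrase; EC50 values determined from infectivity in presence of compound, independent experiments run in triplicate.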

[4] = tested on: HIV-1 IN double mutant G140S/Q148H; conditions: single round infection; previously reported; cited from earlier work
[5] = tested on: HIV-1 IN double mutant G140S/Q148H; assay: single-round infectivity assay, G140S/Q148H IN double mutant; format: cell-based
Summary of the method: as §4

HIV-1 IN mutant Y143H = assay: single-round infectivity assay, Y143H IN mutant; format: cell-based; conditions: for FC Y143H: fold change in EC50, IN mutant versus WT HIV-1
Summary of the method: as §2

HIV-1 IN mutant N117H = assay: single-round infectivity assay, N117H IN mutant; format: cell-based; conditions: for EC50: Human immunodeficiency virus 1, read-out: EC50 values N117H; for FC N117H: fold change in EC50, IN mutant versus WT HIV-1
Summary of the method: as §3

HIV-1 IN mutant P142S = assay: single-round infectivity assay, P142S IN mutant; format: cell-based; conditions: for EC50: Human immunodeficiency virus 1, read-out: EC50 values P142S; for FC P142S: fold change in EC50, IN mutant versus WT HIV-1
Summary of the method: as §2

HIV-1 IN mutant N155H [6] = conditions: single round infection; previously reported; cited from earlier work
HIV-1 IN mutant P142H = assay: single-round infectivity assay, P142H IN mutant; format: cell-based; conditions: for EC50: Human immunodeficiency virus 1, read-out: EC50 values P142H
Summary of the method: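 EC50 was obtained in a single-round infection assay using the luciferase-reporter, Env-deleted HIV-1 vector pNLNgoMIVR-ΔENV.LUC carrying the P142H integrase mutation made by site-directed mutagenesis. Data are from four independent experiments, each in triplicate.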

HIV-1 IN mutant Y143R [7] = assay: single-round infectivity assay, Y143R IN mutant; format: cell-based
Summary of the method: as §4

HIV-1 IN mutant Y143C = assay: single-round infectivity assay, Y143C IN mutant; format: cell-based; conditions: for FC Y143C: fold change in EC50, IN mutant versus WT HIV-1
Summary of the method: as §2

WT HIV-1 = conditions: vector carrying WT HIV-1 IN, single round infection; previously reported; cited from earlier work
HIV-1 IN mutant S230R = assay: single-round infectivity assay, S230R IN mutant; format: cell-based; conditions: for EC50: Human immunodeficiency virus 1, read-out: EC50 values S230R; for FC S230R: fold change in EC50, IN mutant versus WT HIV-1
Summary of the method: as §1

HIV-1 IN mutant R231K = assay: single-round infectivity assay, R231K IN mutant; format: cell-based
Summary of the method: as §1

HIV-1 IN mutant G118R [8] = assay: single-round infectivity assay, G118R IN mutant; format: cell-based
Summary of the method: as §3

[9] = fold change in EC50, IN mutant versus WT HIV-1
[10] = Human immunodeficiency virus 1, read-out: EC50 values Y143H, single round infection, n = 4
[11] = read-out: EC50 values Y143H, single round infection, n = 4
[12] = Human immunodeficiency virus 1, read-out: EC50 values R231K, single round infection, n = 4
[13] = read-out: EC50 values R231K, single round infection, n = 4

C[C@@H]1CCO[C@H]2Cn3cc(C(=O)NCc4ccc(F)cc4F)c(=O)c(O)c3C(=O)N12 [DTG, dolutegravir, reference compound]
EC50 (HIV-1 IN mutant R231G): 1.4 ± 0.2 nM | FC R231G (HIV-1 IN mutant R231G): 0.9 | EC50 (HIV-1 IN mutant G118R [1]): 13 ± 5 nM | EC50 (HIV-1 IN mutant P142A): 2.5 ± 0.5 nM | FC P142A (HIV-1 IN mutant P142A): 1.6 | EC50 (HIV-1 IN mutant Y143R [2]): 4.3 ± 1.2 nM | EC50 (HIV-1 IN mutant N117A): 0.5 nM | FC N117A (HIV-1 IN mutant N117A): 0.3 | EC50 (HIV-1 IN mutant S119R): 2.3 ± 0.6 nM | FC S119R (HIV-1 IN mutant S119R): 1.4 | FC N155H (HIV-1 IN mutant N155H [3]; [9]): 2.3 | EC50 [4]: 5.8 ± 0.5 nM | FC G140S/Q148H [5, 9]: 3.6 | EC50 (HIV-1 IN mutant Y143H; [10]): 2.2 ± 0.2 nM | FC Y143H (HIV-1 IN mutant Y143H): 1.4 | EC50 (HIV-1 IN mutant Y143H; [11]): < 3 nM | EC50 (HIV-1 IN mutant N117H): 2.4 nM | FC N117H (HIV-1 IN mutant N117H): 1.5 | EC50 (HIV-1 IN mutant P142S): 2.2 ± 0.1 nM | FC P142S (HIV-1 IN mutant P142S): 1.4 | EC50 (HIV-1 IN mutant N155H [6]): 3.6 ± 1.3 nM | EC50 (HIV-1 IN mutant P142H): 2.8 ± 0.7 nM | FC Y143R (HIV-1 IN mutant Y143R [7]; [9]): 2.7 | FC Y143C (HIV-1 IN mutant Y143C): 0.9 | EC50 (WT HIV-1): 1.6 ± 0.9 nM | EC50 (HIV-1 IN mutant S230R): 4.6 ± 0.7 nM | FC S230R (HIV-1 IN mutant S230R): 2.9 | EC50 (HIV-1 IN mutant R231K; [12]): 4.2 ± 0.2 nM | EC50 (HIV-1 IN mutant R231K; [13]): < 5 nM

Nc1c(C(=O)NCc2ccc(F)cc2F)c(=O)n(O)c2ncc(CCS(=O)(=O)c3ccccc3)cc12 [4f]
ratio of the EC50s (our compound relative to DTG) against R231G (HIV-1 IN mutant R231G; EC50 compound / EC50 DTG): 1.4 | EC50 (HIV-1 IN mutant R231G): 2 ± 0.2 nM | FC R231G (HIV-1 IN mutant R231G): 1.0 | EC50 (HIV-1 IN mutant G118R [1]): 11.4 ± 3.5 nM | ratio of the EC50s (our compound relative to DTG) against P142A (HIV-1 IN mutant P142A; EC50 compound / EC50 DTG): 1.1 | EC50 (HIV-1 IN mutant P142A): 2.8 ± 0.1 nM | FC P142A (HIV-1 IN mutant P142A): 1.4 | ratio of the EC50s (our compound relative to DTG) against G118R (HIV-1 IN mutant G118R [8]; EC50 compound / EC50 DTG): 0.9 | FC G118R (HIV-1 IN mutant G118R [8]; [9]): 5.7 | EC50 (HIV-1 IN mutant N117A): 0.8 nM | FC N117A (HIV-1 IN mutant N117A): 0.4 | ratio of the EC50s (our compound relative to DTG) against S119R (HIV-1 IN mutant S119R; EC50 compound / EC50 DTG): 1.1 | EC50 (HIV-1 IN mutant S119R): 2.6 ± 0.4 nM | FC S119R (HIV-1 IN mutant S119R): 1.3 | ratio of the EC50s (our compound relative to DTG) against N155H (HIV-1 IN mutant N155H [3]; EC50 compound / EC50 DTG): 0.6 | EC50 [4]: 5.2 ± 0.3 nM | ratio of the EC50s (our compound relative to DTG) against G140S/Q148H ([5]; EC50 compound / EC50 DTG): 0.9 | ratio of the EC50s (our compound relative to DTG) against Y143H (HIV-1 IN mutant Y143H; EC50 compound / EC50 DTG): 1.0 | EC50 (HIV-1 IN mutant Y143H; [10]): 2.3 ± 0.1 nM | FC Y143H (HIV-1 IN mutant Y143H): 1.2 | EC50 (HIV-1 IN mutant Y143H; [11]): < 3 nM | ratio of the EC50s (our compound relative to DTG) against N117H (HIV-1 IN mutant N117H; EC50 compound / EC50 DTG): 1.1 | EC50 (HIV-1 IN mutant N117H): 2.7 nM | FC N117H (HIV-1 IN mutant N117H): 1.4 | ratio of the EC50s (our compound relative to DTG) against P142S (HIV-1 IN mutant P142S; EC50 compound / EC50 DTG): 0.7 | EC50 (HIV-1 IN mutant P142S): 1.5 ± 0.3 nM | FC P142S (HIV-1 IN mutant P142S): 0.8 | ratio of the EC50s (our compound relative to DTG) against P142H (HIV-1 IN mutant P142H; EC50 compound / EC50 DTG): 0.6 | EC50 (HIV-1 IN mutant P142H): 1.7 ± 0.2 nM | FC P142H (HIV-1 IN mutant P142H; [9]): 0.9 | ratio of the EC50s (our compound relative to DTG) against Y143R (HIV-1 IN mutant Y143R [7]; EC50 compound / EC50 DTG): 0.1 | ratio of the EC50s (our compound relative to DTG) against Y143C (HIV-1 IN mutant Y143C; EC50 compound / EC50 DTG): 1.2 | EC50 (HIV-1 IN mutant Y143C; Human immunodeficiency virus 1, read-out: EC50 values Y143C, single round infection, n = 4): 1.7 ± 0.4 nM | FC Y143C (HIV-1 IN mutant Y143C): 0.9 | EC50 (HIV-1 IN mutant Y143C; read-out: EC50 values Y143C, single round infection, n = 4): < 3 nM | EC50 (WT HIV-1): 2 ± 0.1 nM | ratio of the EC50s (our compound relative to DTG) against S230R (HIV-1 IN mutant S230R; EC50 compound / EC50 DTG): 1.0 | EC50 (HIV-1 IN mutant S230R): 4.8 ± 0.3 nM | FC S230R (HIV-1 IN mutant S230R): 2.4 | ratio of the EC50s (our compound relative to DTG) against R231K (HIV-1 IN mutant R231K; EC50 compound / EC50 DTG): 0.8 | EC50 (HIV-1 IN mutant R231K; [12]): 3.3 ± 0.2 nM | EC50 (HIV-1 IN mutant R231K; [13]): < 5 nM

Reference: paper PMC8205226, “HIV-1 Integrase Inhibitors with Modifications That Affect Their Potencies against Drug Resistant Integrase Mutants” (ACS Infectious Diseases, 2021)
